Data taken from patent US11352394B2, “Cyclic cell penetrating peptides comprising beta-hairpin motifs and methods of making and using thereof” (Ohio State Innovation Foundation, priority 2016, dated 2022).
Square brackets hold non-standard residues; d marks the D form. Phe(4-F) = N[C@@H](Cc1ccc(F)cc1)C(=O)O; 2Nal = N[C@@H](Cc1ccc2ccccc2c1)C(=O)O

Each substance was assayed on HeLa cells (assay: Cellular (cytosolic) uptake of NF-labeled peptides by flow cytometry (MFI)). Conditions: relative to CPP 1 (100%); mean ± S.D. of three independent experiments.
Type: cell-based
Experimental: HeLa cells were treated with 5 μM peptide for 2 h, and their cell uptake efficiencies were determined by flow cytometry analysis. The mean fluorescence intensity (MFI) values derived from cytometry analyses reflect the amounts of peptides inside the cytosol and nucleus, whereas any NF-labeled peptide entrapped inside the acidic endosomes are invisible under the experimental conditions (Id.; Qian, Z et al. Chem. Commun. 2015, 51, 2162-2165).
The binding affinity of BH23 (unlabeled) for the Grb2 SH2 domain was then determined by examining its ability to compete with the FAM-labeled ligand for binding to the Grb2 SH2 domain by fluorescence polarization (FP). […] Next, BH23 was labeled with NF at the Asn side chain through a miniPEG-Lys linker and its cytosolic entry efficiency was quantitated by treating HeLa cells with 5 μM of the labeled peptide for 2 h before flow cytometry analysis. […] BH23 was also similarly labeled at the Asn side chain with FAM and its entry into HeLa cells was examined by live-cell confocal microscopy. […] Two control peptides (BH24 and BH25) were also prepared for cellular assays. BH24 and BH25 are structurally similar to BH23, except that BH24 contained a Tyr instead of the pY residue (FIG. 11), whereas in BH25 the two hydrophobic residues critical for cellular uptake (Nal-arg) were replaced with Ala-ala (FIG. 12).
BHT1 and BHT2 were labeled with naphthofluorescein (NF) and their cytosolic uptake into HeLa cells was determined by flow cytometry (Table 10).
Additional cell penetrating compounds were prepared and tested for cytosolic delivery. In these compounds there was no beta-hairpin turn creating moiety.

Row | Substance | Cellular Uptake (MFI^NF, %), cytosolic delivery efficiency of CPPs without beta-hairpin moiety [%]
1 | 131 (cyclo(F[2Nal]RRRRQ); SMILES N=C(N)NCCC[C@@H]1NC(=O)[C@H](CCCNC(=N)N)NC(=O)[C@H](CCCNC(=N)N)NC(=O)[C@H](Cc2ccc3ccccc3c2)NC(=O)[C@H](Cc2ccccc2)NC(=O)[C@H](CCC(N)=O)NC(=O)[C@H](CCCNC(=N)N)NC1=O) [Peptide 131] | 100 ± 6
2 | 234 (FFRRRQ; cyclic) [Peptide 234] | 65
3 | 235 (cyclo(FF[dR]R[dR]Q); SMILES N=C(N)NCCC[C@@H]1NC(=O)[C@@H](CCCNC(=N)N)NC(=O)[C@H](Cc2ccccc2)NC(=O)[C@H](Cc2ccccc2)NC(=O)[C@H](CCC(N)=O)NC(=O)[C@@H](CCCNC(=N)N)NC1=O) [Peptide 235] | 122
4 | 236 (cyclo(FFR[dR]RQ); SMILES N=C(N)NCCC[C@@H]1NC(=O)[C@H](Cc2ccccc2)NC(=O)[C@H](Cc2ccccc2)NC(=O)[C@H](CCC(N)=O)NC(=O)[C@H](CCCNC(=N)N)NC(=O)[C@@H](CCCNC(=N)N)NC1=O) [Peptide 236] | 40
5 | 237 (FRFRRQ; cyclic) [Peptide 237] | 15 ± 3
6 | 238 (FRRFRQ; cyclic) [Peptide 238] | 38 ± 10
7 | 239 (FRRRFQ; cyclic) [Peptide 239] | 25 ± 4
8 | 240 (cyclo(G[2Nal]RRRQ); SMILES N=C(N)NCCC[C@@H]1NC(=O)[C@H](Cc2ccc3ccccc3c2)NC(=O)CNC(=O)[C@H](CCC(N)=O)NC(=O)[C@H](CCCNC(=N)N)NC(=O)[C@H](CCCNC(=N)N)NC1=O) [Peptide 240] | 49 ± 5
9 | 241 (FFFRAQ; cyclic) [Peptide 241] | 52 ± 2
10 | 242 (FFFRRQ; cyclic) [Peptide 242] | 125 ± 25
11 | 243 (FFRRRRQ; cyclic) [Peptide 243] | 89 ± 27
12 | 244 (FRRFRRQ; cyclic) [Peptide 244] | 31 ± 3
13 | 245 (FRRRFRQ; cyclic) [Peptide 245] | 20 ± 3
14 | 246 (RFFRRRQ; cyclic) [Peptide 246] | 63 ± 19
15 | 247 (RFRRFRQ; cyclic) [Peptide 247] | 94 ± 9
16 | 248 (FRFRRRQ; cyclic) [Peptide 248] | 132 ± 57
17 | 249 (FFFRRRQ; cyclic) [Peptide 249] | 231 ± 43
18 | 250 (FFRRRFQ; cyclic) [Peptide 250] | 158 ± 21
19 | 252 (RRFFFRQ; cyclic) [Peptide 252] | 172 ± 24
20 | 253 (FFRFRRQ; cyclic) [Peptide 253] | 106 ± 22
21 | 254 (FFRRFRQ; cyclic) [Peptide 254] | 86 ± 12

Row | Substance | Cellular Uptake (MFI^NF, %), cytosolic delivery efficiency of CPPs without beta-hairpin moiety [%]
22 | 255 (FRRFFRQ; cyclic) [Peptide 255] | 109 ± 11
23 | 256 (FRRFRFQ; cyclic) [Peptide 256] | 101 ± 16
24 | 257 (FRFRFRQ; cyclic) [Peptide 257] | 105 ± 14
25 | 258 (RFFRFRQ; cyclic) [Peptide 258] | 96 ± 31
26 | 259 (cyclo(G[2Nal]RRRRQ); SMILES N=C(N)NCCC[C@@H]1NC(=O)[C@H](Cc2ccc3ccccc3c2)NC(=O)CNC(=O)[C@H](CCC(N)=O)NC(=O)[C@H](CCCNC(=N)N)NC(=O)[C@H](CCCNC(=N)N)NC(=O)[C@H](CCCNC(=N)N)NC1=O) [Peptide 259] | 55 ± 5
27 | 260 (FFFRRRRQ; cyclic) [Peptide 260] | 122 ± 20
28 | 261 (RFFRRRRQ; cyclic) [Peptide 261] | 104 ± 5
29 | 262 (RRFFRRRQ; cyclic) [Peptide 262] | 115 ± 20
30 | 263 (RFFFRRRQ; cyclic) [Peptide 263] | 167 ± 10
31 | 264 (RRFFFRRQ; cyclic) [Peptide 264] | 112 ± 20
32 | 265 (FFRRFRRQ; cyclic) [Peptide 265] | 46 ± 2
33 | 266 (FFRRRRFQ; cyclic) [Peptide 266] | 162 ± 16
34 | 267 (FRRFFRRQ; cyclic) [Peptide 267] | 127 ± 22
35 | 268 (FFFRRRRRQ; cyclic) [Peptide 268] | 145 ± 27
36 | 269 (FFFRRRRRRQ; cyclic) [Peptide 269] | 141 ± 10
37 | 270 (cyclo(F[2Nal]R[dR]R[dR]Q)) [Peptide 270] | 212 ± 42
38 | 271 (cyclo([Phe(4-F)][Phe(4-F)]RRRRQ); SMILES N=C(N)NCCC[C@@H]1NC(=O)[C@H](CCCNC(=N)N)NC(=O)[C@H](CCCNC(=N)N)NC(=O)[C@H](Cc2ccc(F)cc2)NC(=O)[C@H](Cc2ccc(F)cc2)NC(=O)[C@H](CCC(N)=O)NC(=O)[C@H](CCCNC(=N)N)NC1=O) [Peptide 271] | 165 ± 22
39 | 272 (cyclo(F[dF]FR[dR]RQ); SMILES N=C(N)NCCC[C@@H]1NC(=O)[C@H](Cc2ccccc2)NC(=O)[C@@H](Cc2ccccc2)NC(=O)[C@H](Cc2ccccc2)NC(=O)[C@H](CCC(N)=O)NC(=O)[C@H](CCCNC(=N)N)NC(=O)[C@@H](CCCNC(=N)N)NC1=O) [Peptide 272] | 230 ± 18
40 | 273 (cyclo([dF]F[dF][dR]R[dR]Q); SMILES N=C(N)NCCC[C@@H]1NC(=O)[C@@H](CCCNC(=N)N)NC(=O)[C@@H](Cc2ccccc2)NC(=O)[C@H](Cc2ccccc2)NC(=O)[C@@H](Cc2ccccc2)NC(=O)[C@H](CCC(N)=O)NC(=O)[C@@H](CCCNC(=N)N)NC1=O) [Peptide 273] | 463 ± 94
41 | 274 (cyclo([dF]F[dF]R[dR]RQ); SMILES N=C(N)NCCC[C@@H]1NC(=O)[C@@H](CCCNC(=N)N)NC(=O)[C@H](CCCNC(=N)N)NC(=O)[C@@H](Cc2ccccc2)NC(=O)[C@H](Cc2ccccc2)NC(=O)[C@@H](Cc2ccccc2)NC(=O)[C@H](CCC(N)=O)NC1=O) [Peptide 274] | 359 ± 66
